According to BindingDB's records for patent US20230357253 (The Scripps Research Institute, 2023):

Biological target: Stimulator of interferon genes protein (Homo sapiens, UniProt Q86WV6)
Experiment: WT STING Binding Assay
Method: Upon proximity of the two dyes, the excitation of the donor by the flash lamp on the PHERAstar FSX plate reader triggers a Fluorescence Resonance Energy Transfer (FRET) towards the acceptor, which in turn fluoresces at 665 nm. To assess the ability of the synthetic small molecule STING ligands to bind to human STING, a competitive assay format was applied. A 10-point titration of each of the synthetic ligands in 5 uL were transferred into a 384 well plate, followed by 20 uL of assay buffer containing the 6×His-tagged human STING protein and labeled 2′3′cGAMP ligand and incubated for three hours at room temperature. The raw values obtained from the PHERAstar were used to calculate the reported IC50 values (the signal is inversely proportional to the binding of the synthetic ligand) through curve fitting in Genedata. The percent inhibition was calculated based upon the maximal amount of binding by synthetic compound versus the maximum binding of unlabeled 2′3′ cGAMP which was used as a control in each assay.

Chain of Stimulator of interferon genes protein (Q86WV6 whole entry): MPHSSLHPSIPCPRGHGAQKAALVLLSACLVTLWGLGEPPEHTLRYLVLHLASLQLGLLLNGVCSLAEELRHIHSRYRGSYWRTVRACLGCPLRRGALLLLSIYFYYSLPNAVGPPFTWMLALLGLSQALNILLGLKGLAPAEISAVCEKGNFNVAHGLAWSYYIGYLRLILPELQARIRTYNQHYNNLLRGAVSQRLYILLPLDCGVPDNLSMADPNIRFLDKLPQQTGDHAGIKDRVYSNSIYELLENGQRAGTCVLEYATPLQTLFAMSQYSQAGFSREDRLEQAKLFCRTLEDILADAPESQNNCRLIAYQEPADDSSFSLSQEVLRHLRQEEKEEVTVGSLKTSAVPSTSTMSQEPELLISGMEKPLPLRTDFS

| IC50 [µM] | Structure (SMILES) |
| --- | --- |
| < 0.01 | O=C(Nc1cc(CCCc2cc(NC(=O)c3ccc(-n4ccnc4)nn3)c(C(=O)O)cc2F)c(F)cc1C(=O)O)c1ccc(-n2ccnc2)nn1 [US20230357253, Compound 3] |
| < 0.01 | O=C(Nc1cc(CCOc2cc(NC(=O)c3ccc(-c4cn[nH]c4)nn3)c(C(=O)O)cc2F)c(F)cc1C(=O)O)c1ccc(-c2cn[nH]c2)nn1 [US20230357253, Compound 4] |
| < 0.01 | CC(CCOc1cc(NC(=O)c2ccc(-n3ccnc3)nn2)c(C(=O)O)cc1F)Oc1cc(NC(=O)c2ccc(-n3ccnc3)nn2)c(C(=O)O)cc1F (centres undefined) [US20230357253, Compound 5] |
| < 0.01 | COc1cc(C(=O)O)c(NC(=O)c2ccc(-n3ccnc3)nn2)cc1OCCc1cc(C(=O)O)c(NC(=O)c2ccc3nnnn3n2)cc1Cl [US20230357253, Compound 6] |
| < 0.01 | O=C(Nc1cc(OCCCOc2cc(C(=O)O)c(NC(=O)c3ccc(-n4ccnc4)nn3)cc2F)c(F)cc1C(=O)O)c1ccc(-n2ccnc2)nn1 [US20230357253, Compound 10] |
| > 1 | O=C(Nc1cc(CCCc2ccc(NC(=O)c3ccc4nnnn4n3)c(C(=O)O)c2)ccc1C(=O)O)c1ccc2nnnn2n1 [US20230357253, Compound 13] |
| > 1 | O=C(Nc1cc(CCCc2ccc(C(=O)O)c(NC(=O)c3ccc4nnnn4n3)c2)ccc1C(=O)O)c1ccc2nnnn2n1 [US20230357253, Compound 14] |
| < 0.01 | O=C(Nc1cc(OCCCCOc2cc(NC(=O)c3ccc(-n4ccnc4)nn3)c(C(=O)O)cc2F)ccc1C(=O)O)c1ccc(-n2ccnc2)nn1 [US20230357253, Compound 19] |
| > 1 | COc1cc(C(=O)O)c(NC(=O)c2ccc(-n3ccnc3)nn2)cc1OCCCCOc1cc(NC(=O)c2ccc(-n3ccnc3)nn2)c(C(=O)O)cc1OC [US20230357253, Compound 21] |
| > 1 | O=C(Nc1cc(OCCCOc2ccc(NC(=O)c3ccc4nnnn4n3)c(C(=O)O)c2)ccc1C(=O)O)c1ccc2nnnn2n1 [US20230357253, Compound 25] |
| > 1 | O=C(Nc1cc(OCCOc2cc(C(=O)O)c(NC(=O)c3ccc4nnnn4n3)cc2F)ccc1C(=O)O)c1ccc2nnnn2n1 [US20230357253, Compound 26] |
| > 1 | O=C(Nc1cc(OCCCCOc2ccc(NC(=O)c3ccc4nnnn4n3)c(C(=O)O)c2)ccc1C(=O)O)c1ccc2nnnn2n1 [US20230357253, Compound 27] |
| > 1 | O=C(Nc1cc(OCCCOc2ccc(C(=O)O)c(NC(=O)c3ccc4nnnn4n3)c2)ccc1C(=O)O)c1ccc2nnnn2n1 [US20230357253, Compound 28] |
| > 1 | O=C(Nc1cc(CCc2ccc(C(=O)O)c(NC(=O)c3ccc4nnnn4n3)c2)ccc1C(=O)O)c1ccc2nnnn2n1 [US20230357253, Compound 29] |
| > 1 | O=C(Nc1cc(OCCCCCOc2ccc(C(=O)O)c(NC(=O)c3ccc4nnnn4n3)c2)ccc1C(=O)O)c1ccc2nnnn2n1 [US20230357253, Compound 30] |
| > 1 | O=C(Nc1cc(OCCOc2ccc(NC(=O)c3ccc4nnnn4n3)c(C(=O)O)c2)ccc1C(=O)O)c1ccc2nnnn2n1 [US20230357253, Compound 31] |
| > 1 | O=C(Nc1cc(OCCCCOc2ccc(C(=O)O)c(NC(=O)c3ccc4nnnn4n3)c2)ccc1C(=O)O)c1ccc2nnnn2n1 [US20230357253, Compound 32] |
| > 1 | O=C(Nc1cc(OCCCOc2cc(C(=O)O)c(NC(=O)c3ccc4nnnn4n3)cc2F)c(F)cc1C(=O)O)c1ccc2nnnn2n1 [US20230357253, Compound 33] |
| > 1 | O=C(Nc1cc(OCCCCOc2ccc(C(=O)O)c(NC(=O)c3ccc(-n4ccnc4)nn3)c2)ccc1C(=O)O)c1ccc(O)nn1 [US20230357253, Compound 35] |
| > 1 | COC(=O)c1ccc(OCCCCOc2ccc(C(=O)O)c(NC(=O)c3ccc(-n4ccnc4)nn3)c2)cc1NC(=O)c1ccc2nnnn2n1 [US20230357253, Compound 37] |
| > 1 | O=C(Nc1c(C(=O)O)cc(F)c(OCCCCOc2c(F)cc(C(=O)O)c(NC(=O)c3ccc(-n4ccnc4)nn3)c2F)c1F)c1ccc(-n2ccnc2)nn1 [US20230357253, Compound 38] |
| > 1 | O=C(Nc1c(C(=O)O)cc(F)c(OCCCCOc2c(F)cc(C(=O)O)c(NC(=O)c3ccc(-n4ccnc4)nn3)c2F)c1F)c1ccc(O)nn1 [US20230357253, Compound 39] |
| > 1 | O=C(Nc1cc(OCCCCOc2cnc(C(=O)O)c(NC(=O)c3ccc(-n4ccnc4)nn3)c2)cnc1C(=O)O)c1ccc(-n2ccnc2)nn1 [US20230357253, Compound 45] |
| < 0.01 | COc1cc(C(=O)O)c(NC(=O)c2ccc(-n3ccnc3)nn2)cc1CCCc1ccc(C(=O)O)c(NC(=O)c2ccc(-n3ccnc3)nn2)c1 [US20230357253, Compound 56] |
| < 0.01 | COc1cc(C(=O)O)c(NC(=O)c2ccc(-n3ccnc3)nn2)cc1CCCc1cc(NC(=O)c2ccc(-n3ccnc3)nn2)c(C(=O)O)cc1F [US20230357253, Compound 59] |

| IC50 [µM] | Structure (SMILES) |
| --- | --- |
| > 1 | O=C(Nc1cc(CCCc2ccc(C(=O)O)c(NC(=O)c3ccc4nnnn4n3)c2)ccc1C(=O)O)c1ccc(-n2ccnc2)nn1 [US20230357253, Compound 63] |
| < 0.01 | O=C(Nc1cc(CCCc2cc(NC(=O)c3ccc(-n4ccnc4)nn3)c(C(=O)O)cc2Cl)ccc1C(=O)O)c1ccc(-n2ccnc2)nn1 [US20230357253, Compound 66] |
| < 0.01 | O=C(Nc1cc(CCCc2cc(NC(=O)c3ccc4nnnn4n3)c(C(=O)O)cc2F)c(F)cc1C(=O)O)c1ccc(-n2ccnc2)nn1 [US20230357253, Compound 67] |
| < 0.01 | O=C(Nc1cc(CCCc2cc(NC(=O)c3ccc(-n4ccnc4)nn3)c(C(=O)O)cc2F)ccc1C(=O)O)c1ccc(-n2ccnc2)nn1 [US20230357253, Compound 68] |
| < 0.01 | O=C(Nc1cc(CCCc2cc(C(=O)O)c(NC(=O)c3ccc(-n4ccnc4)nn3)cc2F)c(F)cc1C(=O)O)c1ccc(-n2ccnc2)nn1 [US20230357253, Compound 70] |
| < 0.01 | O=C(Nc1cc(CCCc2cc(C(=O)O)c(NC(=O)c3ccc(-n4ccnc4)nn3)cc2F)ccc1C(=O)O)c1ccc(-n2ccnc2)nn1 [US20230357253, Compound 78] |
| < 0.01 | O=C(Nc1cc(CCCc2cc(C(=O)O)c(NC(=O)c3ccc4nnnn4n3)cc2F)c(F)cc1C(=O)O)c1ccc(-n2ccnc2)nn1 [US20230357253, Compound 90] |
| < 0.01 | O=C(Nc1cc(F)c(CCCc2cc(NC(=O)c3ccc4nnnn4n3)c(C(=O)O)cc2F)cc1C(=O)O)c1ccc(-n2ccnc2)nn1 [US20230357253, Compound 94] |
| > 1 | O=C(Nc1cc(CCCc2cc(C(=O)O)c(NC(=O)c3ccc4nnnn4n3)cc2F)c(N2CCOCC2)cc1C(=O)O)c1ccc(-n2ccnc2)nn1 [US20230357253, Compound 108] |
| < 0.01 | O=C(Nc1cc(CCCOc2cc(NC(=O)c3ccc(-n4ccnc4)nn3)c(C(=O)O)cc2F)c(F)cc1C(=O)O)c1ccc(-n2ccnc2)nn1 [US20230357253, Compound 125] |
| < 0.01 | O=C(Nc1cc(CCCOc2cc(NC(=O)c3ccc4nnnn4n3)c(C(=O)O)cc2F)c(F)cc1C(=O)O)c1ccc(-n2ccnc2)nn1 [US20230357253, Compound 126] |
| < 0.01 | O=C(Nc1cc(CCCCc2cc(C(=O)O)c(NC(=O)c3ccc(-n4ccnc4)nn3)cc2F)c(F)cc1C(=O)O)c1ccc(-n2ccnc2)nn1 [US20230357253, Compound 127] |
| < 0.01 | COc1cc(C(=O)O)c(NC(=O)c2ccc(-n3ccnc3)nn2)cc1OCCc1cc(C(=O)O)c(NC(=O)c2ccc(-n3ccnc3)nn2)cc1C#N [US20230357253, Compound 130] |
| < 0.01 | O=C(Nc1cc(CSCc2cc(NC(=O)c3ccc(-n4ccnc4)nn3)c(C(=O)O)cc2F)c(F)cc1C(=O)O)c1ccc(-n2ccnc2)nn1 [US20230357253, Compound 132] |
| > 1 | O=C(O)Cc1cc(F)c(CCOc2cc(NC(=O)c3ccc(-n4ccnc4)nn3)c(C(=O)O)cc2F)cc1NC(=O)c1ccc(-n2ccnc2)nn1 [US20230357253, Compound 133] |
| < 0.01 | COc1nc(C(=O)O)c(NC(=O)c2ccc(-n3ccnc3)nn2)cc1CCCc1cc(NC(=O)c2ccc(-n3ccnc3)nn2)c(C(=O)O)cc1F [US20230357253, Compound 134] |
| > 1 | O=C(Nc1ccc(OCOc2ccc(NC(=O)c3ccc(-n4ccnc4)nn3)c(C(=O)O)c2)cc1C(=O)O)c1ccc(-n2ccnc2)nn1 [US20230357253, Compound 138] |
| < 0.01 | O=C(Nc1cc(CCOc2cc(C(=O)O)c(NC(=O)c3ccc(-n4ccnc4)nn3)cc2F)c(F)cc1C(=O)O)c1ccc(-n2ccnc2)nn1 [US20230357253, Compound 141] |
| < 0.01 | O=C(Nc1cc(OCCc2cc(C(=O)O)c(NC(=O)c3ccc(-n4ccnc4)nn3)cc2F)c(F)cc1C(=O)O)c1ccc(-n2ccnc2)nn1 [US20230357253, Compound 144] |
| 0.01 to 0.1 | O=C(Nc1cc(CCOc2cc(C(=O)O)c(NC(=O)c3ccc4nnnn4n3)cc2F)c(F)cc1C(=O)O)c1ccc(-n2ccnc2)nn1 [US20230357253, Compound 145] |
| > 1 | O=C(Nc1cc(CCCc2ccc(-c3nn[nH]n3)c(NC(=O)c3ccc(-n4ccnc4)nn3)c2)c(F)cc1C(=O)O)c1ccc(-n2ccnc2)nn1 [US20230357253, Compound 148] |
| < 0.01 | COc1cc(C(=O)O)c(NC(=O)c2ccc(-n3ccnc3)nn2)cc1OCCc1cc(C(=O)O)c(NC(=O)c2ccc(-n3ccnc3)nn2)cc1Cl [US20230357253, Compound 156] |
| < 0.01 | O=C(Nc1cc(CCCc2cc(NC(=O)c3ccc(-n4ccnc4)nn3)c(C(=O)O)cc2F)c(F)cc1C(=O)O)c1ccc(-c2cn[nH]c2)nn1 [US20230357253, Compound 159] |
| < 0.01 | N#Cc1cc(C(=O)O)c(NC(=O)c2ccc(-n3ccnc3)nn2)cc1CCOc1cc(NC(=O)c2ccc(-n3ccnc3)nn2)c(C(=O)O)cc1F [US20230357253, Compound 162] |
